Laboratory results reported in ChEMBL document CHEMBL1201862, “PubChem BioAssay data set” (2004).
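Interpolation was linear, between the two tested concentrations surrounding the appropriate level; five concentrations were tested over 48 hours in 96-well plates. GI50 = concentration required for 50% inhibition of growth.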 Active and inactive are the calls of the source. Rule as the data show it: active = GI50 up to about 1.1 µM and inactive = higher.

Tests used:
Assay in all cases: NCI anticancer screen, dose series, 48 h
M19-MEL = test system: M19-MEL
SK-MEL-2 = test system: SK-MEL-2
NCI-H522 = test system: NCI-H522
DLD-1 = test system: DLD-1
K562 = test system: K562
ACHN = test system: ACHN
SNB-75 = test system: SNB-75
SR = test system: SR
OVCAR-8 = test system: OVCAR-8
EKVX = test system: EKVX
HCT-116 = test system: HCT-116
A549 = test system: A549
OVCAR-5 = test system: OVCAR-5
CAKI-1 = test system: CAKI-1
OVCAR-4 = test system: OVCAR-4
SNB-78 = test system: SNB-78
SK-MEL-28 = test system: SK-MEL-28
HOP-92 = test system: HOP-92
786-0 = test system: 786-0
SW-620 = test system: SW-620
NCI-H460 = test system: NCI-H460
M14 = test system: M14
NCI-H226 = test system: NCI-H226
SK-OV-3 = test system: SK-OV-3
HCC 2998 = test system: HCC 2998
UO-31 = test system: UO-31
LXFL 529 = test system: LXFL 529
RXF 393 = test system: RXF 393
KM12 = test system: KM12
UACC-62 = test system: UACC-62
DMS-273 = test system: DMS-273
COLO 205 = test system: COLO 205
SNB-19 = test system: SNB-19
LOX IMVI = test system: LOX IMVI
CCRF-CEM = test system: CCRF-CEM
NCI-H23 = test system: NCI-H23
IGROV-1 = test system: IGROV-1
U-251 = test system: U-251
HT-29 = test system: HT-29
SN12C = test system: SN12C
MOLT-4 = test system: MOLT-4
SK-MEL-5 = test system: SK-MEL-5
SF-539 = test system: SF-539
SF-268 = test system: SF-268
OVCAR-3 = test system: OVCAR-3
Malme-3M = test system: Malme-3M
TK-10 = test system: TK-10
SF-295 = test system: SF-295
HOP-18 = test system: HOP-18
HL-60 = test system: HL-60
RPMI-8226 = test system: RPMI-8226
HCT-15 = test system: HCT-15
A498 = test system: A498
UACC-257 = test system: UACC-257
KM-20L2 = test system: KM-20L2
HOP-62 = test system: HOP-62
DMS-114 = test system: DMS-114

SMILES: CNC(=S)N/N=C1\CC(c2ccccc2)Oc2ccccc21 (stereo not drawn)
- GI50 (M19-MEL): 91.8 µM (inactive)
- GI50 (SK-MEL-2): > 100 µM (inactive)
- GI50 (NCI-H522): > 100 µM (inactive)
- GI50 (DLD-1): > 100 µM (inactive)
- GI50 (K562): > 100 µM (inactive)
- GI50 (ACHN): > 100 µM (inactive)
- GI50 (SNB-75): > 100 µM (inactive)
- GI50 (SR): > 100 µM (inactive)
- GI50 (OVCAR-8): > 100 µM (inactive)
- GI50 (EKVX): > 100 µM (inactive)
- GI50 (HCT-116): > 100 µM (inactive)
- GI50 (A549): > 100 µM (inactive)
- GI50 (OVCAR-5): > 100 µM (inactive)
- GI50 (CAKI-1): > 100 µM (inactive)
- GI50 (OVCAR-4): 18.6 µM (inactive)
- GI50 (SNB-78): > 100 µM (inactive)
- GI50 (SK-MEL-28): > 100 µM (inactive)
- GI50 (HOP-92): 18.3 µM (inactive)
- GI50 (786-0): > 100 µM (inactive)
- GI50 (SW-620): > 100 µM (inactive)
- GI50 (NCI-H460): > 100 µM (inactive)
- GI50 (M14): > 100 µM (inactive)
- GI50 (NCI-H226): 43.7 µM (inactive)
- GI50 (SK-OV-3): > 100 µM (inactive)
- GI50 (HCC 2998): > 100 µM (inactive)
- GI50 (UO-31): 8.11 µM (inactive)
- GI50 (LXFL 529): > 100 µM (inactive)
- GI50 (RXF 393): > 100 µM (inactive)
- GI50 (KM12): > 100 µM (inactive)
- GI50 (UACC-62): > 100 µM (inactive)
- GI50 (DMS-273): > 100 µM (inactive)
- GI50 (COLO 205): > 100 µM (inactive)
- GI50 (SNB-19): > 100 µM (inactive)
- GI50 (LOX IMVI): > 100 µM (inactive)
- GI50 (CCRF-CEM): > 100 µM (inactive)
- GI50 (NCI-H23): > 100 µM (inactive)
- GI50 (IGROV-1): > 100 µM (inactive)
- GI50 (U-251): > 100 µM (inactive)
- GI50 (HT-29): > 100 µM (inactive)
- GI50 (SN12C): > 100 µM (inactive)
- GI50 (MOLT-4): > 100 µM (inactive)
- GI50 (SK-MEL-5): 88.5 µM (inactive)
- GI50 (SF-539): > 100 µM (inactive)
- GI50 (SF-268): > 100 µM (inactive)
- GI50 (OVCAR-3): 34.8 µM (inactive)
- GI50 (Malme-3M): > 100 µM (inactive)
- GI50 (TK-10): > 100 µM (inactive)
- GI50 (SF-295): > 100 µM (inactive)

SMILES: CC(C)=CCC/C(C)=C/CC/C(C)=C/CC/C=C(\C)CC/C=C(\C)CCC1SC1(C)C (stereo not drawn)
- GI50 (HOP-18): > 100 µM (inactive)
- GI50 (M19-MEL): > 100 µM (inactive)
- GI50 (SK-MEL-2): > 100 µM (inactive)
- GI50 (NCI-H522): > 100 µM (inactive)
- GI50 (DLD-1): > 100 µM (inactive)
- GI50 (K562): > 100 µM (inactive)
- GI50 (HL-60): > 100 µM (inactive)
- GI50 (RPMI-8226): > 100 µM (inactive)
- GI50 (ACHN): > 100 µM (inactive)
- GI50 (SNB-75): > 100 µM (inactive)
- GI50 (HCT-15): > 100 µM
- GI50 (OVCAR-8): > 100 µM (inactive)
- GI50 (EKVX): > 100 µM (inactive)
- GI50 (HCT-116): > 100 µM (inactive)
- GI50 (A549): > 100 µM (inactive)
- GI50 (OVCAR-5): > 100 µM (inactive)
- GI50 (CAKI-1): > 100 µM (inactive)
- GI50 (A498): > 100 µM (inactive)
- GI50 (OVCAR-4): > 100 µM (inactive)
- GI50 (SNB-78): > 100 µM (inactive)
- GI50 (SK-MEL-28): > 100 µM (inactive)
- GI50 (HOP-92): 64 µM (inactive)
- GI50 (786-0): > 100 µM (inactive)
- GI50 (SW-620): 52.5 µM (inactive)
- GI50 (NCI-H460): > 100 µM (inactive)
- GI50 (M14): > 100 µM (inactive)
- GI50 (NCI-H226): > 100 µM (inactive)
- GI50 (SK-OV-3): > 100 µM (inactive)
- GI50 (HCC 2998): > 100 µM (inactive)
- GI50 (UACC-257): > 100 µM (inactive)
- GI50 (UO-31): > 100 µM (inactive)
- GI50 (LXFL 529): > 100 µM (inactive)
- GI50 (RXF 393): > 100 µM (inactive)
- GI50 (KM12): > 100 µM (inactive)
- GI50 (UACC-62): > 100 µM (inactive)
- GI50 (DMS-273): > 100 µM (inactive)
- GI50 (KM-20L2): > 100 µM (inactive)
- GI50 (COLO 205): > 100 µM (inactive)
- GI50 (SNB-19): > 100 µM (inactive)
- GI50 (LOX IMVI): > 100 µM (inactive)
- GI50 (CCRF-CEM): > 100 µM (inactive)
- GI50 (NCI-H23): > 100 µM (inactive)
- GI50 (IGROV-1): > 100 µM (inactive)
- GI50 (U-251): > 100 µM (inactive)
- GI50 (HT-29): > 100 µM (inactive)
- GI50 (SN12C): > 100 µM (inactive)
- GI50 (MOLT-4): > 100 µM (inactive)
- GI50 (SK-MEL-5): > 100 µM (inactive)
- GI50 (SF-539): > 100 µM (inactive)
- GI50 (HOP-62): > 100 µM (inactive)
- GI50 (SF-268): > 100 µM (inactive)
- GI50 (Malme-3M): > 100 µM (inactive)
- GI50 (TK-10): > 100 µM (inactive)
- GI50 (DMS-114): 75.7 µM (inactive)
- GI50 (SF-295): > 100 µM (inactive)
